For series [1], the system named is chorioallantoic membrane (CAM). Nature of the series: In ovo irritation test (HET-CAM). Particulars: SIL-O and SIL-L at 100 µM. The format is in vivo, chicken. Here is the method:
The potential irritant effect of SIL-O and SIL-L (100 µM) was assessed in ovo, by applying the Hen’s Egg Test – Chorioallantoic Membrane (HET-CAM) test. The applied procedure was also described by Breban-Schwarzkopf et al.. Briefly, chicken-fertilized eggs were cleaned and disinfected with ethanol 70% and placed in an incubator at 37 ^∘C and 60% humidity. On the fourth day of incubation, a cut was performed on the eggs’ tips to allow the extraction of 6–7 mL albumen, while on the fifth day, a window was cut on the upper side of each egg and covered with adhesive tape. The experiment was performed on the tenth day of incubation, by applying the samples directly on the chorioallantoic membrane (CAM) and analyzing the occurrence of vascular impairments, such as hemorrhage, lysis, and coagulation for 5 min. Representative pictures were taken before the start of the experiment (T0) and at its end (T5) using the Discovery 8 SteREO Microscope equipped with an Axio CAM 105 color camera and processed in ZEN core version 3.8 software (Zeiss, Göttingen, Germany). The irritant potential was determined by calculating the irritation score (IS) for each sample and interpreted as presented in a previous publication.

The test system of series [2] is Madin–Darby Canine Kidney (MDCK) cells. Also noted: method as in PMID 20036447. Particulars: 800 µM, 2 h; cited from earlier work.
Series [3] has as its system HK-2 human renal tubular endothelial cells. On the set-up: method as in PMID 32103902. The note with it: HK-2 cells, 60 and 90 µM, 48 h; cited from earlier work.
Series [4] has as its system H9c2 cells. Also noted: method as in PMID 22818713. Particulars: concentrations up to 200 µM, 48 h; cited from earlier work.
Series [5] deals with LX-2 human hepatic stellate cells. Also noted: method as in PMID 27746612. The note with it: LX-2 cells, 10, 50 and 100 µM; cited from earlier work.
Series [6] deals with H9c2(2-1) cells. The experiment in a line: Cell migration (scratch) assay. The format is cell-based. Particulars: 24 h, normalized to control. As for the experimental part:
(§1) To investigate the effect of SIL, SIL-O, and SIL-L treatments on the migration of H9c2(2-1), HepaRG, and HaCaT cells, the scratch assay was performed as follows: (A) the cells (10^5 cells/mL/well) were seeded in Corning Costar 24-well plates and left to attach and reach a proper confluence, (B) a scratch was automatically made in every well using the AutoScratch™ Wound Making Tool (BioTek Instruments Inc., Winooski, VT, USA), (C) the cells were exposed to SIL and its FAs derivatives 1, 10, and 25 µM for 24 h, and (D) the wound area was imaged at two time points (0 and 24 h) using Cytation 1 Imaging Reader (BioTek® Instruments Inc., Winooski, VT, USA). The Gen5 ™ Microplate Data Collection and Analysis Software (BioTek® Instruments Inc., Winooski, VT, USA) was used to measure the wound widths in each image. The migration rates (%) for the applied treatments were determined using the formula presented below and normalized to control.
(§2) Migration rate (%) ═ [drawing 2] ×100, where:
(§3) At0 ═ wound width at 0 h,
(§4) At24 ═ wound width at 24 h.

The test system of series [7] is HepaRG cells. The experiment in a line: Cell migration (scratch) assay. The series is classed as cell-based. The note with it: 24 h, normalized to control. Here is the method:
as §1, §2, §3, §4

Series [8] can be described thus: MTT cell viability assay. The format is cell-based. As for the experimental part:
The study was performed using three cell lines – H9c2(2-1) cardiomyoblasts (CRL-1446™), HepaRG hepatocytes (HPRGC10), and HaCaT keratinocytes (300493) – delivered as frozen vials by ATCC (Lomianki, Poland), ThermoFisher Scientific (Waltham, MA, USA), and CLS Cell Lines Service GmbH (Eppelheim, Germany), respectively. H9c2(2-1) and HaCaT cells were grown in DMEM, while HepaRG cells were cultured in William’s E Medium containing insulin from bovine pancreas (at a final concentration of 4 µg/mL) and hydrocortisone 21-hemisuccinate sodium salt (at a final concentration of 50 µM). Both media were supplemented with 10% FCS and 1% antibiotics (penicillin 100 U/mL and streptomycin 100 µg/mL). The cells were cultured at 37 ^∘C and 5% CO2, in a humidified incubator for cell culture, presenting normal proliferation during the experiments.
The impact of all tested compounds (1, 10, 25, 50, and 100 µM) on the viability of H9c2(2-1), HepaRG, and HaCaT cells was assessed using the MTT method which was performed according to a previous publication. Briefly, the cells cultured in 96-well plates were exposed to SIL, SIL-O, and SIL-L for 24 h. At the end of the treatment, the culture medium containing SIL, SIL-O, and SIL-L was removed and replaced with 100 µL/well of the specific culture media for the used cell lines (DMEM for H9c2(2-1) cells and HaCaT; William’s E Medium for HepaRG). Then, 10 µL of MTT reagent was added in every well, followed by 3 h of incubation of the plates at 37 ^∘C. The absorbance measurements were performed at 570 and 630 nm on Cytation 5 Microplate Reader (BioTek Instruments Inc., Winooski, VT, USA) following the addition of the MTT solubilization solution (a volume of 100 µL/well), and the plates’ incubation at room temperature for 30 min, protected from light.
Background: Formazan colour is commonly taken as a measure of viable cells.

For series [9], the system named is HaCaT keratinocytes. Nature of the series: Hoechst 33342 nuclear staining, apoptotic index. The series is classed as cell-based, human. The note with it: 100 µM, 24 h. As for the experimental part: The influence of SIL, SIL-O, and SIL-L (100 µM) on nuclear morphology was evaluated by imaging the cells’ nuclei stained with Hoechst 33342. Shortly, at the end of the treatment, the H9c2(2-1), HepaRG, and HaCaT cells cultured in 12-well plates were treated with staining solution (500 µL/well, dilution of 1:2000 in PBS) for 10 min at room temperature, protected from light and washed with PBS before imaging which was performed on Cytation 1 Imaging Reader (BioTek Instruments Inc., Winooski, VT, USA). Image processing was conducted using the Gen5™ Microplate Data Collection and Analysis Software (BioTek Instruments Inc., Winooski, VT, USA). Apoptotic index (AI) was calculated by applying the formula previously reported: […]

On the set-up of series [10]: method as in PMID 19601873. Particulars: buffers with pH 1.0–7.8 and physiological media (plasma, intestinal and liver fluids); cited from earlier work.
For series [11], the system named is HaCaT cells. Nature of the series: Cell migration (scratch) assay. The series is classed as cell-based, human. The note with it: 24 h. As for the experimental part: as §1, §2, §3, §4
The subject of series [12] is HaCaT cells. On the set-up: method as in earlier work. The note with it: 24 h, cited from earlier work.

Where two headings read alike, the source gives them in different places.

Regarding `CCCCCCCCCCCCOS(=O)(=O)[O-].[Na+]` [SDS 1%, sodium dodecyl sulfate], the “IS value (irritation score)” value in series [1] (5 min) was found to be 19.74. The “Observation (irritant classification)” value in series [1] (based on IS value) is “Strong irritant”.
One may read the viability as a read-out of living cells in per cent, often relative to untreated cells. With `COc1cc(C2Oc3cc([C@H]4Oc5cc(O)cc(O)c5C(=O)[C@@H]4O)ccc3OC2CO)ccc1O` (some centres unmarked) [SIL, Silibinin], the values for the cytotoxicity entry in [2] and in series [4] were “no cytotoxic effect” and “not cytotoxic”, respectively. For the same compound, the effect on viability result in [3] is on record as “significantly decreased the viability”. In series [5], the “effect on migratory properties” value was “inhibitory effect”. The migration rate in series [6] (1 µM) is given as 105.34%; in [6] (25 µM), 119.8%; in series [7] (10 µM), “around 50%”; in series [7] (25 µM) it was “around 50%”. In series [8] (human, HepaRG hepatocytes, higher concentrations (reduction up to), normalized to control), the viability at 24 h was ~80%. For the same compound, the viability at 24 h, 1 µM in [8] (rat, H9c2(2-1) cardiomyoblasts, 1 µM, normalized to control) is 128%. Moreover, the viability at 24 h, 100 µM in [8] (rat, H9c2(2-1) cardiomyoblasts, all tested concentrations (1, 10, 25, 50, 100 µM), compared to control) was > 100%. For the same compound, the “apoptotic index (AI)” value in series [9] is listed as “no significant changes”. For the same compound, the stability entry in [10] is given as “unstable”. The effect on migration result in series [11] (25 µM, compared to control) is listed as “significant inhibition”; in series [11] (1 and 10 µM), “neither SIL, nor SIL-O or SIL-L affected”.
As for `CCCCCCCC/C=C\CCCCCCCC(=O)Oc1c(-c2ccc(O)c(O)c2)oc2cc(O)cc(O)c2c1=O` [quercetin-3-oleate], the “enhancement in wound healing compared to control” value in series [12] (0.1 µM (first concentration listed)) was 47%; in series [12] (0.1 µM (second concentration listed)), 35%; in series [12] (1 µM), 51%.
